# Values quoted from earlier work as cited in paper PMC10719327, “A dose-escalation study of HP501, a highly selective URAT1 inhibitor, in male Chinese patients with hyperuricemia” (Scientific Reports, 2023).
# Assays:
# [1] = tested on: Japanese patients with hyperuricemia; set-up: method as in PMID 30334639
# patients = tested on: patients; set-up: method as in PMID 29029210; conditions: lesinurad monotherapy
SMILES,patients with serum creatinine elevated 1.5 times to baseline level [1] [%],patients with increased serum creatinine (patients)
CC(C)(Sc1ccncc1-c1ccc(C#N)c2ccccc12)C(=O)O [Verinurad],17.1,
O=C(O)CSc1nnc(Br)n1-c1ccc(C2CC2)c2ccccc12 [lesinurad],,About 24.30%
